According to article PMC8586704 (Frontiers in Chemistry, 2021):
In brackets after ≈: the same amount, converted by molar mass. Like-named read-outs stand apart in the source and are kept apart here. Starred links: 1 amine or outer side, 2 acyl side, 3 side chain; linkers in the order of their positions; H or OH if unused. Non-standard residues stand in square brackets, D forms with d. Residues, ends and D or L forms follow the SMILES beside them. Groups on a side chain read outwards from the residue. X11 = COC(=O)[C@H](Cc1c[nH]cn1)NC(=O)[C@@H](C)C[C@@H](C(=O)[*:2])N(C)[*:1]; X10 = CC[C@H](C)[C@H](NC(=O)[C@@H](C)C[C@@H](C(=O)[*:2])N(C)[*:1])C(=O)OC; X4 = COC(=O)[C@H](CCSC)NC(=O)[C@@H](C)C[C@@H](C(=O)[*:2])N(C)[*:1]; Trp(1-(1,1-Me2-allyl)) = C=CC(C)(C)n1cc(C[C@H](N)C(=O)O)c2ccccc21; NMeGlu(4S-Me) = C[C@@H](C[C@@H](C(=O)[*:2])N(C)[*:1])C(=O)[*:3]; X1 = C[C@@H](C[C@@H](C(=O)[*:2])N(C)[*:1])C(=O)NCc1ccc(F)cc1; X12 = C[C@@H](C[C@@H](C(=O)[*:2])N(C)[*:1])C(=O)NCc1ccccc1; Tyr(3-NO2) = N[C@@H](Cc1ccc(O)c([N+](=O)[O-])c1)C(=O)O; Gly(E-crotyl) = C/C=C/C[C@H](N)C(=O)O; NMeL = CN[C@@H](CC(C)C)C(=O)O

Tests used:
MCF-7 = assay: cells; assay type: cell-based; settings: Homo sapiens, MCF7; breast adenocarcinoma cell line
A549 = assay: Cytotoxicity assay (CCK-8); assay type: cell-based; settings: Homo sapiens, lung cancer cell line
L02 = assay: cells; assay type: cell-based; settings: normal human hepatic cell line
M. tuberculosis H37Rv = assay: Antitubercular activity assay, broth dilution, auto-luminescent strain; assay type: cell-based, Mycobacterium tuberculosis
Huvec-12 = assay: Cytotoxicity assay (CCK-8); assay type: cell-based; settings: normal human umbilical vein endothelial cell line
HCT116 = assay: cells; assay type: cell-based; settings: Homo sapiens, HCT-116; colon cancer cell line
HepG2 = assay: cells; assay type: cell-based; settings: Homo sapiens, hepatocellular carcinoma cell line
HeLa = assay: cells; assay type: cell-based; settings: Homo sapiens, cervical carcinoma cell line
[1] = Mycobacterium tuberculosis, H37RV, Day 3rd, read-out: MICs against H37Rv, Day 3rd
[2] = Mycobacterium tuberculosis, H37RV, Day 7th, read-out: MICs against H37Rv, Day 7th
[3] = Mycobacterium tuberculosis, H37RV, Day 14th, read-out: MICs against H37Rv, Day 14th
[4] = Day 3rd, read-out: MICs against H37Rv, Day 3rd
[5] = Day 14th, read-out: MICs against H37Rv, Day 14th

| SMILES | IC50 (MCF-7) | IC50 (A549) | IC50 (L02) | MIC (M. tuberculosis H37Rv; [1]) | MIC (M. tuberculosis H37Rv; [2]) | MIC (M. tuberculosis H37Rv; [3]) | IC50 (Huvec-12) | IC50 (HCT116) | IC50 (HepG2) | IC50 (HeLa) | MIC (M. tuberculosis H37Rv; [4]) | MIC (M. tuberculosis H37Rv; [5]) | increase of anti-TB activity compared with ilamycin F (M. tuberculosis H37Rv; Day 3rd) | more potent MIC value than that of 9 and 11 (M. tuberculosis H37Rv; Day 14th) |
| --- | --- | --- | --- | --- | --- | --- | --- | --- | --- | --- | --- | --- | --- | --- |
| C=CC(C)(C)n1cc(C[C@@H]2NC(=O)[C@H](C/C=C/C)NC(=O)[C@H](CC(C)C)NC(=O)[C@H](C[C@H](C)C(=O)N[C@@H](CCSC)C(=O)OC)N(C)C(=O)[C@H](C)NC(=O)[C@H](Cc3ccc(O)c([N+](=O)[O-])c3)NC(=O)[C@H](CC(C)C)N(C)C2=O)c2ccccc21 [Compound 2, ilamycin NJL2] (cyclo(A[X4]L[Gly(E-crotyl)][Trp(1-(1,1-Me2-allyl))][NMeL][Tyr(3-NO2)])) | > 50 µM | > 50 µM | > 50 µM | 6.7 µM (≈ 7.96 µg/mL) | 6.7 µM (≈ 7.96 µg/mL) | 3.4 µM (≈ 4.04 µg/mL) | > 50 µM | > 50 µM | > 50 µM | > 50 µM | – | – | – | – |
| C=CC(C)(C)n1cc(C[C@@H]2NC(=O)[C@H](C/C=C/C)NC(=O)[C@H](CC(C)C)NC(=O)[C@H](C[C@H](C)C(=O)N[C@H](C(=O)OC)[C@@H](C)CC)N(C)C(=O)[C@H](C)NC(=O)[C@H](Cc3ccc(O)c([N+](=O)[O-])c3)NC(=O)[C@H](CC(C)C)N(C)C2=O)c2ccccc21 [Compound 3, ilamycin NJL3] (cyclo(A[X10]L[Gly(E-crotyl)][Trp(1-(1,1-Me2-allyl))][NMeL][Tyr(3-NO2)])) | > 50 µM | > 50 µM | 12 µM | 6.8 µM (≈ 7.95 µg/mL) | 6.8 µM (≈ 7.95 µg/mL) | 6.8 µM (≈ 7.95 µg/mL) | > 50 µM | > 50 µM | > 50 µM | 14.5 µM | – | – | – | – |
| C=CC(C)(C)n1cc(C[C@@H]2NC(=O)[C@H](C/C=C/C)NC(=O)[C@H](CC(C)C)NC(=O)[C@H](C[C@H](C)C(=O)N[C@@H](CCCNC(=N)N)C(=O)OC)N(C)C(=O)[C@H](C)NC(=O)[C@H](Cc3ccc(O)c([N+](=O)[O-])c3)NC(=O)[C@H](CC(C)C)N(C)C2=O)c2ccccc21 [Compound 4, ilamycin NJL4] (cyclo(A[NMeGlu(4S-Me)]([Arg-OMe])L[Gly(E-crotyl)][Trp(1-(1,1-Me2-allyl))][NMeL][Tyr(3-NO2)])) | > 50 µM | 23 µM | 25.9 µM | 26.4 µM (≈ 32 µg/mL) | 26.4 µM (≈ 32 µg/mL) | 26.4 µM (≈ 32 µg/mL) | 35.2 µM | 30.6 µM | > 50 µM | 26 µM | – | – | – | – |
| C=CC(C)(C)n1cc(C[C@@H]2NC(=O)[C@H](C/C=C/C)NC(=O)[C@H](CC(C)C)NC(=O)[C@H](C[C@H](C)C(=O)N[C@@H](Cc3c[nH]cn3)C(=O)OC)N(C)C(=O)[C@H](C)NC(=O)[C@H](Cc3ccc(O)c([N+](=O)[O-])c3)NC(=O)[C@H](CC(C)C)N(C)C2=O)c2ccccc21 [Compound 5, ilamycin NJL5] (cyclo(A[X11]L[Gly(E-crotyl)][Trp(1-(1,1-Me2-allyl))][NMeL][Tyr(3-NO2)])) | > 50 µM | > 50 µM | > 50 µM | 26.8 µM (≈ 32 µg/mL) | 26.8 µM (≈ 32 µg/mL) | 26.8 µM (≈ 32 µg/mL) | > 50 µM | > 50 µM | > 50 µM | > 50 µM | – | – | – | – |
| C=CC(C)(C)n1cc(C[C@@H]2NC(=O)[C@H](C/C=C/C)NC(=O)[C@H](CC(C)C)NC(=O)[C@H](C[C@H](C)C(=O)N[C@@H](Cc3c[nH]c4ccccc34)C(=O)OC)N(C)C(=O)[C@H](C)NC(=O)[C@H](Cc3ccc(O)c([N+](=O)[O-])c3)NC(=O)[C@H](CC(C)C)N(C)C2=O)c2ccccc21 [Compound 6, ilamycin NJL6] (cyclo(A[NMeGlu(4S-Me)]([Trp-OMe])L[Gly(E-crotyl)][Trp(1-(1,1-Me2-allyl))][NMeL][Tyr(3-NO2)])) | > 50 µM | > 50 µM | > 50 µM | 1.6 to 3.5 µM (≈ 1.99 to 4.35 µg/mL) | 1.7 µM (≈ 2.11 µg/mL) | 1.6 to 1.7 µM (≈ 1.99 to 2.11 µg/mL) | > 50 µM | > 50 µM | > 50 µM | > 50 µM | 1.7 µM (≈ 2.11 µg/mL) | 1.7 µM (≈ 2.11 µg/mL) | – | – |
| C=CC(C)(C)n1cc(C[C@@H]2NC(=O)[C@H](C/C=C/C)NC(=O)[C@H](CC(C)C)NC(=O)[C@H](C[C@H](C)C(=O)N[C@@H](Cc3ccccc3)C(=O)OC)N(C)C(=O)[C@H](C)NC(=O)[C@H](Cc3ccc(O)c([N+](=O)[O-])c3)NC(=O)[C@H](CC(C)C)N(C)C2=O)c2ccccc21 [Compound 7, ilamycin NJL7] (cyclo(A[NMeGlu(4S-Me)]([Phe-OMe])L[Gly(E-crotyl)][Trp(1-(1,1-Me2-allyl))][NMeL][Tyr(3-NO2)])) | > 50 µM | > 50 µM | > 50 µM | 26.6 µM (≈ 32 µg/mL) | 13.3 µM (≈ 16 µg/mL) | 6.6 µM (≈ 7.94 µg/mL) | > 50 µM | > 50 µM | > 50 µM | > 50 µM | – | – | – | – |
| C=CC(C)(C)n1cc(C[C@@H]2NC(=O)[C@H](C/C=C/C)NC(=O)[C@H](CC(C)C)NC(=O)[C@H](C[C@H](C)C(=O)N[C@@H](Cc3ccc(O)cc3)C(=O)OC)N(C)C(=O)[C@H](C)NC(=O)[C@H](Cc3ccc(O)c([N+](=O)[O-])c3)NC(=O)[C@H](CC(C)C)N(C)C2=O)c2ccccc21 [Compound 8, ilamycin NJL8] (cyclo(A[NMeGlu(4S-Me)]([Tyr-OMe])L[Gly(E-crotyl)][Trp(1-(1,1-Me2-allyl))][NMeL][Tyr(3-NO2)])) | > 50 µM | > 50 µM | > 50 µM | 1.6 to 3.5 µM (≈ 1.95 to 4.27 µg/mL) | 1.6 µM (≈ 1.95 µg/mL) | 1.6 to 1.7 µM (≈ 1.95 to 2.07 µg/mL) | > 50 µM | > 50 µM | > 50 µM | > 50 µM | 1.6 µM (≈ 1.95 µg/mL) | 1.6 µM (≈ 1.95 µg/mL) | – | – |
| C=CC(C)(C)n1cc(C[C@@H]2NC(=O)[C@H](C/C=C/C)NC(=O)[C@H](CC(C)C)NC(=O)[C@H](C[C@H](C)C(=O)NCc3ccccc3)N(C)C(=O)[C@H](C)NC(=O)[C@H](Cc3ccc(O)c([N+](=O)[O-])c3)NC(=O)[C@H](CC(C)C)N(C)C2=O)c2ccccc21 [Compound 9, ilamycin NJL9] (cyclo(A[X12]L[Gly(E-crotyl)][Trp(1-(1,1-Me2-allyl))][NMeL][Tyr(3-NO2)])) | > 50 µM | > 50 µM | > 50 µM | 3.5 µM (≈ 3.96 µg/mL) | 3.5 µM (≈ 3.96 µg/mL) | 3.5 µM (≈ 3.96 µg/mL) | > 50 µM | > 50 µM | > 50 µM | > 50 µM | – | – | – | – |
| C=CC(C)(C)n1cc(C[C@@H]2NC(=O)[C@H](C/C=C/C)NC(=O)[C@H](CC(C)C)NC(=O)[C@H](C[C@H](C)C(=O)NCc3ccc(F)cc3)N(C)C(=O)[C@H](C)NC(=O)[C@H](Cc3ccc(O)c([N+](=O)[O-])c3)NC(=O)[C@H](CC(C)C)N(C)C2=O)c2ccccc21 [Compound 10, ilamycin NJL10] (cyclo(A[X1]L[Gly(E-crotyl)][Trp(1-(1,1-Me2-allyl))][NMeL][Tyr(3-NO2)])) | > 50 µM | > 50 µM | > 50 µM | 1.6 to 3.5 µM (≈ 1.84 to 4.02 µg/mL) | 1.7 µM (≈ 1.95 µg/mL) | 1.6 to 1.7 µM (≈ 1.84 to 1.95 µg/mL) | > 50 µM | > 50 µM | > 50 µM | > 50 µM | 1.7 µM (≈ 1.95 µg/mL) | 1.7 µM (≈ 1.95 µg/mL) | 9–19 fold | 2 fold |
| COc1cccc2c1C(=O)c1c(O)c3c(c(O)c1C2=O)C[C@@](O)(C(=O)CO)C[C@@H]3O[C@H]1C[C@H](N)[C@H](O)[C@H](C)O1 [doxorubicin, reference compound] | 4 µM | 1.5 µM | 7.7 µM | – | – | – | 12 µM | 4 µM | 0.6 µM | 0.7 µM | – | – | – | – |
